In paper PMC10882719 (Frontiers in Neuroscience, 2024):
Where two headings read alike, the source gives them in different places.

Key:
Type in all cases: cell-based
[1] = molecular target: T1, 168 GPCRs (Homo sapiens, UniProt P30411)
T1 construct: host or cells: PathHunter cell lines
T1 sequence (P30411 1-391): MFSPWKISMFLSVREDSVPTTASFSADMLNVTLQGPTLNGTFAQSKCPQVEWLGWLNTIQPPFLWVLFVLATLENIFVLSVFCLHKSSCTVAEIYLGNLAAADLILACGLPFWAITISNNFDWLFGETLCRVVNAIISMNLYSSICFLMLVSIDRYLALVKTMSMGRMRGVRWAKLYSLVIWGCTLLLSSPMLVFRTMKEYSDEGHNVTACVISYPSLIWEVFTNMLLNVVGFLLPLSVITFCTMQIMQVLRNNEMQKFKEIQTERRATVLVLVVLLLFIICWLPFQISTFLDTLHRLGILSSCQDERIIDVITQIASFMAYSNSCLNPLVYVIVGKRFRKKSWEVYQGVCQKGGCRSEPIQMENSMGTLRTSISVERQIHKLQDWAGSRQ

[2] = molecular target: T2, 168 GPCRs (Homo sapiens, UniProt Q96RI0)
T2 construct: host or cells: PathHunter cell lines
T2 sequence (Q96RI0 18-385): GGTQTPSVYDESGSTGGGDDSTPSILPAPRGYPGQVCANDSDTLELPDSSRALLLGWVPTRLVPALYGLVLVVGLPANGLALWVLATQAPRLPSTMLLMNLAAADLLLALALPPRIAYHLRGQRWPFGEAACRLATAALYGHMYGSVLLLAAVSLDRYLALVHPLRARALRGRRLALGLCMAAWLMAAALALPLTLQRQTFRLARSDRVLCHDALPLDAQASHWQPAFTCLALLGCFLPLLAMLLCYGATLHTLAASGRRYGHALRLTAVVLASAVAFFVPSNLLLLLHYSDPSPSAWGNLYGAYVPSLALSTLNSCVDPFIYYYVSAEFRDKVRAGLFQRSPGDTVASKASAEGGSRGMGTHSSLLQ

[3] = molecular target: T3, 168 GPCRs (Homo sapiens, UniProt O00574)
T3 construct: host or cells: PathHunter cell lines
T3 sequence (O00574 whole entry): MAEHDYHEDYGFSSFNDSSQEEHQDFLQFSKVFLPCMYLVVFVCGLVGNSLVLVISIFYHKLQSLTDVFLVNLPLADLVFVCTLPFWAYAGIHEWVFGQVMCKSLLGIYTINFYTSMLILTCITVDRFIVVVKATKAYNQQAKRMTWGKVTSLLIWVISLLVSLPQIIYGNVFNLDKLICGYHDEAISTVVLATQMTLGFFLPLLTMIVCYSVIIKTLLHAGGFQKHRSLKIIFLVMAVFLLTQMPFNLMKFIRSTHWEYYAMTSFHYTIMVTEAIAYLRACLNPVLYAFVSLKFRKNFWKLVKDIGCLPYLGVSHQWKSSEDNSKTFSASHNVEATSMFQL

[4] = molecular target: T4, 168 GPCRs (Homo sapiens, UniProt P32247)
T4 construct: host or cells: PathHunter cell lines
T4 sequence (P32247 1-399): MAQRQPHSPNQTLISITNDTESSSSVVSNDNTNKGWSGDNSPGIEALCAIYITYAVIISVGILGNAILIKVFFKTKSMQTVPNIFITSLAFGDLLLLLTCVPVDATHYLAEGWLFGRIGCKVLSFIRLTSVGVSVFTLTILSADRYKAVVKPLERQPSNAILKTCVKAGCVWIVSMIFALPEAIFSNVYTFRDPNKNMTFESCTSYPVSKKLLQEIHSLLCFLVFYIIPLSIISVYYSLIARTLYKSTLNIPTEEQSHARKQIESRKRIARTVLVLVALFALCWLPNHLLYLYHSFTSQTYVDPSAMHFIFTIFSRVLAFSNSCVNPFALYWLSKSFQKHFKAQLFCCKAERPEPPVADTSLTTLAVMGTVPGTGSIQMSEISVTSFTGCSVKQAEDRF

[5] = molecular target: T5, 168 GPCRs (Homo sapiens, UniProt P51679)
T5 construct: host or cells: PathHunter cell lines
T5 sequence (P51679 1-360): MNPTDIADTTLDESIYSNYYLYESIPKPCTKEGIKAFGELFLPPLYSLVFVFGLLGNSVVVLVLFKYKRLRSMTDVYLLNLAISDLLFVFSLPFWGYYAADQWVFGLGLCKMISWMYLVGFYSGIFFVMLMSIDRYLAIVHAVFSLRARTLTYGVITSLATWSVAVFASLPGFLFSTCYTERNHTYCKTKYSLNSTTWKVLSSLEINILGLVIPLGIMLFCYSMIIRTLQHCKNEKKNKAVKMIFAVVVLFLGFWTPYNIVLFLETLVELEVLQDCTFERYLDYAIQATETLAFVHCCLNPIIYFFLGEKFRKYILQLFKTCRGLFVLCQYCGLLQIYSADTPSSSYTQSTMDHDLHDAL

[6] = molecular target: T6, 168 GPCRs (Homo sapiens, UniProt Q99788)
T6 construct: host or cells: PathHunter cell lines
T6 sequence (Q99788 1-373): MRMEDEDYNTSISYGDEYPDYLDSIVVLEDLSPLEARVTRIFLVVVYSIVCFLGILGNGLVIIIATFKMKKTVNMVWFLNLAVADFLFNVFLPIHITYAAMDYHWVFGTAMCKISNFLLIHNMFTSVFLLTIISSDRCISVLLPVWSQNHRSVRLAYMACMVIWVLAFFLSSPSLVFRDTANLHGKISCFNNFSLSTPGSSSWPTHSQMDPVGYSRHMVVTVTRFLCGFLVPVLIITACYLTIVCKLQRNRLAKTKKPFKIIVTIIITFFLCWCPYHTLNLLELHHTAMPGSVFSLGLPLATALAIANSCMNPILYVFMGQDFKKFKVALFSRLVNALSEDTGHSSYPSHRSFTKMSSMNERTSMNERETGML

| SMILES | % Agonist Activity ([1]; BDKRB2, 1 uM) [%] | % Antagonist Activity ([1]; BDKRB2, 1 uM) [%] | % Agonist Activity ([1]; BDKRB2, 10 uM) [%] | % Antagonist Activity ([1]; BDKRB2, 10 uM) [%] | % Agonist Activity ([2]; F2RL3, 1 uM) [%] | % Antagonist Activity ([2]; F2RL3, 1 uM) [%] | % Agonist Activity ([2]; F2RL3, 10 uM) [%] | % Antagonist Activity ([2]; F2RL3, 10 uM) [%] | % Agonist Activity ([3]; CXCR6, 1 uM) [%] | % Antagonist Activity ([3]; CXCR6, 1 uM) [%] | % Agonist Activity ([3]; CXCR6, 10 uM) [%] | % Antagonist Activity ([3]; CXCR6, 10 uM) [%] | % Agonist Activity ([4]; BRS3, 1 uM) [%] | % Antagonist Activity ([4]; BRS3, 1 uM) [%] | % Agonist Activity ([4]; BRS3, 10 uM) [%] | % Antagonist Activity ([4]; BRS3, 10 uM) [%] | % Agonist Activity ([5]; CCR4, 1 uM) [%] | % Antagonist Activity ([5]; CCR4, 1 uM) [%] | % Agonist Activity ([5]; CCR4, 10 uM) [%] | % Antagonist Activity ([5]; CCR4, 10 uM) [%] | further results |
| --- | --- | --- | --- | --- | --- | --- | --- | --- | --- | --- | --- | --- | --- | --- | --- | --- | --- | --- | --- | --- | --- |
| CNC(C)C(=O)c1ccc2c(c1)OCO2 (stereo not drawn) [methylone] | -3.6 | 7.3 | -2.9 | -2.6 | 4.3 | -11.3 | 7 | -6.9 | 0.3 | 27.2 | 0.3 | 12.6 | 4.5 | 18.3 | -4.6 | 10.1 | -0.5 | 10 | -1.4 | 9.5 | % Agonist Activity ([6]; CMKLR1, 1 uM): -0.2%; % Antagonist Activity ([6]; CMKLR1, 1 uM): -0.2%; % Agonist Activity ([6]; CMKLR1, 10 uM): -0.3%; % Antagonist Activity ([6]; CMKLR1, 10 uM): -5.6% |
| CNC(C)Cc1ccc2c(c1)OCO2 (stereo not drawn) [MDMA, 3,4-Methylenedioxy methamphetamine, reference compound] | 0.3 | -6.6 | 0.1 | -5.6 | 10.8 | 9.6 | 8.5 | 13.3 | 14.7 | 20.9 | 3.8 | 5.2 | 2.6 | 7.9 | -3 | 3.8 | 0.1 | 7.7 | 0.1 | 13 | % Agonist Activity ([6]; CMKLR1, 1 uM): -0.3%; % Antagonist Activity ([6]; CMKLR1, 1 uM): 0.4%; % Agonist Activity ([6]; CMKLR1, 10 uM): -0.4%; % Antagonist Activity ([6]; CMKLR1, 10 uM): 1.1% |
